This data set has as its system U138 cells. As to the kind of experiment: MTT cell viability / cytotoxicity assay in U138 cells. How it is done:
Various drug combinations were incubated with U138 cells in cell culture media and the cells were then washed with PBS and added fresh media.

[1] abbreviates: therapeutic agent at 100 nM compared with non-toxic chemo-adjuvant O6-BG at 100 uM (FIG. 4).

As to `C=CC(=O)Nc1cc2c(Nc3ccc(F)c(Cl)c3)ncnc2cc1OCCCN1CCOCC1` [canertinib], the cell viability result under setting [1] was “cell viability is lower”.
As for `CC(=O)O[C@H]1C(=O)[C@@]2(C)[C@H]([C@H](OC(=O)c3ccccc3)[C@]3(O)C[C@H](OC(=O)[C@H](O)[C@@H](NC(=O)c4ccccc4)c4ccccc4)C(C)=C1C3(C)C)[C@]1(OC(C)=O)CO[C@@H]1C[C@@H]2O` [paclitaxel], the cell viability entry under setting [1] is recorded as “cell viability is lower”.
As for `Nc1nc(OCc2ccccc2)c2nc[nH]c2n1` [O6-BG, O6-Benzylguanine], under “free O6-BG 100 μg/ml (FIG. 6)”, the cytotoxicity entry is listed as “not cytotoxic”. The cell viability result (incubation with various concentrations of O6-BG (FIG. 3)) was “some effect on cell viability at very high concentrations”.

Values taken from patent US20130236504A1, “Delivery System for Enhancing Drug Efficacy” (CLEMSON UNIVERSITY, priority 2012, published 2013).
